Experimental data: paper PMC11206519, “Multi-Endpoint Toxicological Assessment of Chrysin Loaded Oil-in-Water Emulsion System in Different Biological Models” (Nanomaterials, 2024)
“And” between values parts separate entries of the source, which are not always exact repeats. Equal entries are not always repeated.

Assays:
[1] = system: D. melanogaster trans-heterozygous mwh+/+flr3 larvae of the HB cross; assay: SMART wing spot test, mutagenicity, HB cross; type: in vivo, Drosophila melanogaster; conditions: 20 mM, positive control
Procedure: (§6) The somatic mutation and recombination test, or the wing spot test, using D. melanogaster was employed as an in vivo system to assess the mutagenicity and anti-mutagenicity of chrysin-ES. Two different crosses were conducted: (i) a standard cross (ST) and (ii) a high bioactivation cross (HB) [18]. The standard cross larvae were obtained from virgin female of flr3/TM3, Ser crossed with males of mwh/mwh, while the HB cross larvae expressing cytochrome P450 enzymes involved in xenobiotic biotransformation were obtained from virgin females of ORR/ORR; flr^3/In (3LR) TM3, ri p^psep l (3)89Aa bx^34e e Bd^s crossed with males of mwh/mwh. The flies were cultured at a constant temperature of 25 ± 1 °C and 60–70% RH at photoperiod 12:12 (light/dark). To evaluate the mutagenicity of chrysin and chrysin-ES, a hundred larva F1 progenies derived from the above crossing were fed with instant Drosophila medium (Formula 4-24®), Carolina, Burlington, NC, USA) containing chrysin or chrysin-ES (20–120 µg/mL). DI was used as a negative control, while 20 mM urethane (URE) was used as a positive control. The larvae were reared on each medium until pupation at 25 °C. After that, forty wings of surviving flies in each group were collected for mutant analysis. The mutant spots on the wings, including small single spots, large single spots, and twin spots, were counted.

[2] = system: D. melanogaster trans-heterozygous mwh+/+flr3 larvae of the ST cross; assay: SMART wing spot test, mutagenicity, ST cross; type: in vivo, Drosophila melanogaster; conditions: 20 mM, positive control
Procedure: as §6

S. typhimurium TA98 = assay: Ames test, anti-mutagenicity; conditions: standard mutagen alone, 0.1 µg/plate, +S9
Procedure: (§1) Furthermore, the anti-mutagenicity of the samples was performed by a similar procedure, as mentioned above. […] The percentage inhibition (decrease revertant colony number) was calculated as in the following equation:Anti-mutagenicity (%) = [1 − (b/a)] × 100 • a = revertant colony number induced via standard mutagen (positive control). • b = revertant colony number induced by standard mutagen in the presence of each sample treatment.
(§2) The percent of inhibition between 0–20%, 21–40%, 41–60%, and higher than 60% indicate negligible, weak, moderate, and strong anti-mutagenicity, respectively.

[3] = system: D. melanogaster trans-heterozygous mwh+/+flr3 larvae of the ST cross; assay: SMART wing spot test, anti-mutagenicity, ST cross
Procedure: (§3) The somatic mutation and recombination test, or the wing spot test, using D. melanogaster was employed as an in vivo system to assess the mutagenicity and anti-mutagenicity of chrysin-ES. Two different crosses were conducted: (i) a standard cross (ST) and (ii) a high bioactivation cross (HB). The standard cross larvae were obtained from virgin female of flr3/TM3, Ser crossed with males of mwh/mwh, while the HB cross larvae expressing cytochrome P450 enzymes involved in xenobiotic biotransformation were obtained from virgin females of ORR/ORR; flr^3/In (3LR) TM3, ri p^psep l (3)89Aa bx^34e e Bd^s crossed with males of mwh/mwh. The flies were cultured at a constant temperature of 25 ± 1 °C and 60–70% RH at photoperiod 12:12 (light/dark). To evaluate the mutagenicity of chrysin and chrysin-ES, a hundred larva F1 progenies derived from the above crossing were fed with instant Drosophila medium (Formula 4-24®), Carolina, Burlington, NC, USA) containing chrysin or chrysin-ES (20–120 µg/mL). DI was used as a negative control, while 20 mM urethane (URE) was used as a positive control. The larvae were reared on each medium until pupation at 25 °C. After that, forty wings of surviving flies in each group were collected for mutant analysis. The mutant spots on the wings, including small single spots, large single spots, and twin spots, were counted. The statistical significance was calculated as previously described by Frei and Würgler.
(§4) Furthermore, the anti-mutagenicity of the samples was performed by a similar procedure as mentioned above.

[4] = system: D. melanogaster trans-heterozygous mwh+/+flr3 larvae of the HB cross; assay: SMART wing spot test, anti-mutagenicity, HB cross
Procedure: as §3, §4

S. typhimurium TA 100 = assay: Ames test, mutagenicity; type: cell-based, Salmonella Typhimurium; conditions: positive control
Procedure: (§5) The S. typhimurium strains TA 98 and TA 100 were used to detect frameshift and base-pair mutations, respectively. […] Then, they were poured onto minimal glucose agar containing a trace amount of histidine, following incubation at 37 °C for 48 h. Then, the revertant colonies were counted and compared with the negative control. If the number of revertant colonies in the tested sample treatment is at least twice that of the negative control (spontaneous revertant colonies), it is considered a mutagen.

S. typhimurium TA100 = assay: Ames test, anti-mutagenicity; conditions: standard mutagen alone, 0.05 µg/plate, +S9
Procedure: as §1, §2

S. typhimurium TA 98 = assay: Ames test, mutagenicity; type: cell-based, Salmonella Typhimurium; conditions: +S9; 0.5 µg/plate, positive control
Procedure: as §5

[5] = Nitrite alone (sodium nitrite 36 mM)
[6] = NMU alone (sodium nitrite 36 mM: methylurea 10 mM)

CCOC(N)=O [URE, urethane, reference compound]
Mutant spots per individual (number of spots), Large Single [1]: 3.10 (62)
Mutant spots per individual (number of spots), Small Single [1]: 10.10 (202)
Mutant spots per individual (number of spots), Total Spots [1]: 14.50 and 14.50 (290)
Mutant spots per individual (number of spots), Twin [1]: 1.30 (26)
Statistical diagnosis, Large Single ([1]; vs DI): +
Statistical diagnosis, Small Single ([1]; vs DI): +
Statistical diagnosis, Total Spots ([1]; vs DI): +
Statistical diagnosis, Twin ([1]; vs DI): +
Mutant spots per individual (number of spots), Large Single [2]: 0.08 (3)
Mutant spots per individual (number of spots), Small Single [2]: 3.73 (149)
Mutant spots per individual (number of spots), Total Spots [2]: 3.80 and 3.80 (152)
Mutant spots per individual (number of spots), Twin [2]: 0 (0)
Statistical diagnosis, Large Single ([2]; vs DI): +
Statistical diagnosis, Small Single ([2]; vs DI): +
Statistical diagnosis, Total Spots ([2]; vs DI): +

Cn1c(N)nc2ncc(-c3ccccc3)cc21 [PhIP, 2-amino-1-methyl-6-phenylimidazo (4,5-b) pyridine, reference compound]
Number of Revertant Colonies (S. typhimurium TA98): 400 ± 11

CNC(N)=O [Methylurea, methylurea, reference compound]
Statistical diagnosis, Small Single ([3]; in vivo): −
Statistical diagnosis, Total ([3]; in vivo): −
Statistical diagnosis, Small Single ([4]; in vivo): −

O=N[O-].[Na+] [Nitrite, sodium nitrite, reference compound]
Mutant spots per individual (number of spots), Large Single [3, 5]: 0 (0)
Mutant spots per individual (number of spots), Small Single [3, 5]: 0.05 (2)
Mutant spots per individual (number of spots), Total [3, 5]: 0.08 (3)
Mutant spots per individual (number of spots), Twin [3, 5]: 0.03 (1)
Statistical diagnosis, Small Single ([3]; Nitrite alone, vs DI): −
Statistical diagnosis, Total ([3]; Nitrite alone, vs DI): −
Mutant spots per individual (number of spots), Large Single [4, 5]: 0.03 (1)
Mutant spots per individual (number of spots), Small Single [4, 5]: 0.25 (10)
Mutant spots per individual (number of spots), Total [4, 5]: 0.28 (11)
Mutant spots per individual (number of spots), Twin [4, 5]: 0 (0)
Statistical diagnosis, Small Single ([4]; Nitrite alone, vs DI): −

CCOS(C)(=O)=O [EMS, ethyl methanesulfonate, reference compound]
Mutant spots per individual (number of spots), Large Single ([3]; EMS 5 mM alone): 1.75 (70)
Mutant spots per individual (number of spots), Small Single ([3]; EMS 5 mM alone): 5.60 (224)
Mutant spots per individual (number of spots), Total ([3]; EMS 5 mM alone): 7.80 (312)
Mutant spots per individual (number of spots), Twin ([3]; EMS 5 mM alone): 0.45 (18)
Statistical diagnosis, Large Single ([3]; EMS 5 mM alone, vs DI): +
Statistical diagnosis, Small Single ([3]; EMS 5 mM alone, vs DI): +
Statistical diagnosis, Total ([3]; EMS 5 mM alone, vs DI): +
Statistical diagnosis, Twin ([3]; EMS 5 mM alone, vs DI): +
Mutant spots per individual (number of spots), Large Single ([4]; EMS 5 mM alone): 0.40 (16)
Mutant spots per individual (number of spots), Small Single ([4]; EMS 5 mM alone): 10.00 (400)
Mutant spots per individual (number of spots), Total ([4]; EMS 5 mM alone): 10.40 (416)
Mutant spots per individual (number of spots), Twin ([4]; EMS 5 mM alone): 0 (0)
Statistical diagnosis, Large Single ([4]; EMS 5 mM alone, vs DI): +
Statistical diagnosis, Small Single ([4]; EMS 5 mM alone, vs DI): +

NC(=O)C(=Cc1ccc([N+](=O)[O-])o1)c1ccco1 [AF-2, 2-(2-Furyl)-3-(5-nitro-2-furyl) acrylamide, reference compound]
Number of Revertant Colonies (S. typhimurium TA 100; −S9, 0.1 µg/plate): 439 ± 30

Cn1c(N)nc2c3cccnc3ccc21 [IQ, 2-Amino-3-methylimidazo(4,5-f) quinoline, reference compound]
Number of Revertant Colonies (S. typhimurium TA100): 730 ± 39

Nc1ccc2cc3ccccc3cc2c1 [2-AA, 2-Aminoanthracene, reference compound]
Number of Revertant Colonies (S. typhimurium TA 100; +S9, 0.5 µg/plate): 487 ± 29
Number of Revertant Colonies (S. typhimurium TA 98): 459 ± 44

CN(N=O)C(N)=O [NMU, N-nitrosomethylurea, reference compound]
Mutant spots per individual (number of spots), Large Single [3, 6]: 0.10 (4)
Mutant spots per individual (number of spots), Small Single [3, 6]: 1.70 (68)
Mutant spots per individual (number of spots), Total [3, 6]: 2.00 (80)
Mutant spots per individual (number of spots), Twin [3, 6]: 0.20 (8)
Statistical diagnosis, Small Single ([3]; NMU alone, vs DI): +
Statistical diagnosis, Total ([3]; NMU alone, vs DI): +
Statistical diagnosis, Twin ([3]; NMU alone, vs DI): +
Mutant spots per individual (number of spots), Large Single [4, 6]: 0.40 (16)
Mutant spots per individual (number of spots), Small Single [4, 6]: 1.43 (57)
Mutant spots per individual (number of spots), Total [4, 6]: 1.93 (77)
Mutant spots per individual (number of spots), Twin [4, 6]: 0.10 (4)
Statistical diagnosis, Large Single ([4]; NMU alone, vs DI): +
Statistical diagnosis, Small Single ([4]; NMU alone, vs DI): −
Statistical diagnosis, Total ([4]; NMU alone, vs DI): +
